Test results published in US12552824B2, “C-mannoside compounds useful for the treatment of urinary tract infections” (GLAXOSMITHKLINE INTELLECTUAL PROPERTY DEVELOPMENT LIMITED, priority 2018, dated 2026).

Experiments:
FimH = target: T1, FimH (Escherichia coli, UniProt Q1R2J4); format: cell-based; settings: concentration reducing bacterial agglutination of guinea pig red blood cells by greater than 90%; UTI89 bacteria;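 note: concentration in nM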
T1 construct: endogenous in cells; host or cells: E. coli UTI89 whole bacteria, agglutinating guinea pig red blood cells
Description: Hemagglutination Inhibition Assay (HAI)
The hemagglutination inhibition (HAI) assay was performed with UTI89 bacteria and guinea pig red blood cells, as previously described (S. J. Hultgren, W. R. Schwan, A. J. Schaeffer, J. L. Duncan Infect. Immun. 1986, 54, 613-620 and Jarvis, C.; Han, Z.; Kalas, V.; Klein, R.; Pinkner, J. S.; Ford, B.; Binkley, J.; Cusumano, C. K.; Cusumano, Z.; Mydock-McGrane, L.; Hultgren, S. J.; Janetka, J. W., ChemMedChem 2016, 11, 367-373).

[1] = Rat pharmacokinetics: IV infusion 1 mg/kg, then PO 5 mg/kg; blood and urine by LC-MS/MS; format: in vivo, Male Wistar Han rats; settings: for bioavailability: male, Wistar Han; for bioavailability / AUC: whole blood; for bioavailability / % F: oral bioavailability, ratio of dose-normalised AUC PO (5 mg/kg) and IV infusion (1 mg/kg); for Ue % po: percentage of oral dose (5 mg/kg) eliminated unchanged in urine; for AUC: area under blood concentration-time profile, PO 5 mg/kg, male Wistar Han rats, n = 3
Text: General Assays for Obtaining AUC Oral h*μm, % F, and Ue % PO Values
Male Wistar Han rats were purchased from Vital River Laboratory Animal Technology Co. Ltd (Beijing, China). The animals were approx. 6-8 weeks old with body weights of 200-300 g on the dosing date. The animals were housed in a 12-hour light/12-hour dark cycle environment and had free access to food and water. All animals were fed prior to dosing. Studies were approved by the Pharmaron Institutional Animal Care and Use Committee (IACUC).
Test article was administered as an intravenous infusion for 1 hour (1 mg/kg) at 5 mL/kg/h. After 48 h, animals received a single oral dose (5 mg/kg, free form) at a dose volume of 10 mL/kg, respectively. Blood samples were collected at various time points after IV infusion and PO administrations. Urine samples were collected at various time points after IV infusion and PO administrations.
Test article was dissolved in DMSO with vortexing and sonification to obtain a stock solution. An aliquot of the stock solution was mixed with 10% HP-β-CD in saline with vortexing to obtain a solution with concentration at 0.2 mg/mL of test article.
Test article was added into 1% Methyl Cellulose with vortexing and sonication to obtain a homogeneous suspension with concentration at 0.5 mg/mL of test article.
For IV infusion (1 mg/kg) administration, blood samples were collected from each animal at 0, 0.25, 0.5, 0.75, 1, 1.08, 1.25, 1.5, 1.75, 2, 3, 5, 8, 12, 24 hour post-dose.
For PO (5 mg/kg) administration, blood samples were collected from each animal at 0, 0.25, 0.5, 1, 1.5, 2, 3, 4, 6, 8, 12, 24 hour post-dose.
Blood samples (50 μL) were collected from each animal via jugular vein. These blood samples were placed into tubes containing K2EDTA. Whole blood was mixed with same volume of water and inverted several times. The blood samples were stored at −75±15° C. until analysis.
For IV infusion (1 mg/kg) administration, urine samples were collected from each animal at 0-4, 4-8, 8-12, 12-24 hour post-dose.
For PO (5 mg/kg) administration, urine samples were collected from each animal at 0-4, 4-8, 8-12, 12-24 hour post-dose.
Urine samples were collected continuously into containers maintained over dry ice at the intervals outlined below and stored at −80° C. prior to analysis.
55 μL of standards, 55 μL of QC samples or 55 μL of unknown samples (50 μL of blood or urine with 5 μL 50% acetonitrile) were mixed to 200 μL of acetonitrile containing IS (dexamethasone) to precipitate proteins. Then the samples were vortexed for 30 sec. After centrifugation at 4° C., 4700 rpm for 30 min, and 5 μL of the supernatant was injected into the LC-MS/MS system for quantitative analysis.
Test article blood and urine concentrations for each animal following IV infusion at 1 mg/kg and PO at 5 mg/kg were used to calculate pharmacokinetic parameters by employing a non-compartmental analysis (Phoenix™ WinNonlin® 7.0). The linear trapezoidal algorithm was used for AUC calculation.

SMILES | HAI titer EC > 90 (FimH) | bioavailability [1] [%] | Ue % po [1] | AUC [1] [µM·h] | % F [1]
C=Cc1c(F)cc(-c2ccc([C@@H](O)[C@H]3O[C@H](CO)[C@@H](O)[C@H](O)[C@@H]3O)c(C)c2)cc1F [Example 4, (2R,3S,4S,5S,6R)-2-((R)-(3′,5′-Difluoro-3-methyl-4′-vinyl-[1,1′-biphenyl]-4-yl)(hydroxy)methyl)-6-(hydroxymethyl)tetrahydro-2H-pyran-3,4,5-triol] | “++++” (<50 “++++”) | 10 to 30 | “++” (0.5 <= x <= 5%) | < 0.5 | 
Cc1cc(-c2ccc(C(F)(F)F)c(F)c2)ccc1[C@@H](O)[C@H]1O[C@H](CO)[C@@H](O)[C@H](O)[C@@H]1O [Example 5, (2R,3S,4S,5S,6R)-2-((R)-(3′-Fluoro-3-methyl-4′-(trifluoromethyl)-[1,1′-biphenyl]-4-yl)(hydroxy)methyl)-6-(hydroxymethyl)tetrahydro-2H-pyran-3,4,5-triol] | “++++” (<50 “++++”) | 10 to 30 | “++” (0.5 <= x <= 5%) | 0.5 to 1 | 
Cc1cc(-c2cc(F)cc(C(F)(F)F)c2)ccc1[C@@H](O)[C@H]1O[C@H](CO)[C@@H](O)[C@H](O)[C@@H]1O [Example 6, (2R,3S,4S,5S,6R)-2-((R)-(3′-Fluoro-3-methyl-5′-(trifluoromethyl)-[1,1′-biphenyl]-4-yl)(hydroxy)methyl)-6-(hydroxymethyl)tetrahydro-2H-pyran-3,4,5-triol] | “++++” (<50 “++++”) | 10 to 30 | “++” (0.5 <= x <= 5%) | < 0.5 | 
Cc1cc(-c2cc(F)c(F)c(F)c2)ccc1[C@@H](O)[C@H]1O[C@H](CO)[C@@H](O)[C@H](O)[C@@H]1O [Example 7, (2R,3S,4S,5S,6R)-2-((R)-Hydroxy(3′,4′,5′-trifluoro-3-methyl-[1,1′-biphenyl]-4-yl)methyl)-6-(hydroxymethyl)tetrahydro-2H-pyran-3,4,5-triol] | “++++” (<50 “++++”) | > 30 | “+++” (>5%) | > 1 | 
OC[C@H]1O[C@H]([C@H](O)c2ccc(-c3cc(F)cc(F)c3)cc2C(F)(F)F)[C@@H](O)[C@@H](O)[C@@H]1O [Example 8, (2R,3S,4S,5S,6R)-2-((R)-(3′,5′-Difluoro-3-(trifluoromethyl)-[1,1′-biphenyl]-4-yl)(hydroxy)methyl)-6-(hydroxymethyl)tetrahydro-2H-pyran-3,4,5-triol] | “++++” (<50 “++++”) | > 30 | “++” (0.5 <= x <= 5%) | < 0.5 | 
Cc1cc(-c2cc(F)cc(F)c2)ccc1[C@@H](O)[C@H]1O[C@H](CO)[C@@H](O)[C@H](O)[C@@H]1O [Example 9, (2R,3S,4S,5S,6R)-2-((R)-(3′,5′-Difluoro-3-methyl-[1,1′-biphenyl]-4-yl)(hydroxy)methyl)-6-(hydroxymethyl)tetrahydro-2H-pyran-3,4,5-triol] | “++++” (<50 “++++”) | > 30 | “+++” (>5%) | 0.5 to 1 | 
Cc1cc(F)c(-c2ccc([C@@H](O)[C@H]3O[C@H](CO)[C@@H](O)[C@H](O)[C@@H]3O)c(C)c2)cc1Cl [Example 11] | “+++” (50-200 “+++”) |  | “++” (0.5 <= x <= 5%) |  | “+++” (>30%)
Cc1cc(-c2ccc(Cl)c(Cl)c2)ccc1[C@@H](O)[C@H]1O[C@H](CO)[C@@H](O)[C@H](O)[C@@H]1O [Example 15] | “++++” (<50 “++++”) |  | “++” (0.5 <= x <= 5%) |  | “++” (10 <= x <= 30%)
Cc1cc(-c2cc(Cl)cc(Cl)c2)ccc1[C@@H](O)[C@H]1O[C@H](CO)[C@@H](O)[C@H](O)[C@@H]1O [Example 16] | “++++” (<50 “++++”) |  | “++” (0.5 <= x <= 5%) |  | “++” (10 <= x <= 30%)
COc1cc(F)cc(-c2ccc([C@@H](O)[C@H]3O[C@H](CO)[C@@H](O)[C@H](O)[C@@H]3O)c(C)c2)c1 [Example 24] | “++++” (<50 “++++”) |  | “++” (0.5 <= x <= 5%) |  | “++” (10 <= x <= 30%)
OC[C@H]1O[C@H]([C@H](O)c2c(F)cc(-c3cc(F)cc(F)c3)cc2C(F)(F)F)[C@@H](O)[C@@H](O)[C@@H]1O [Example 32] | “++++” (<50 “++++”) |  | “++” (0.5 <= x <= 5%) |  | “++” (10 <= x <= 30%)
COc1cc(-c2ccc([C@@H](O)[C@H]3O[C@H](CO)[C@@H](O)[C@H](O)[C@@H]3O)c(C)c2)cc(C(F)(F)F)c1 [Example 61] | “++++” (<50 “++++”) |  | “+” (<0.5%) |  | “++” (10 <= x <= 30%)
Cc1cc(-c2cc(F)c(C(F)(F)F)c(F)c2)ccc1[C@@H](O)[C@H]1O[C@H](CO)[C@@H](O)[C@H](O)[C@@H]1O [Example 64] | “++++” (<50 “++++”) |  | “++” (0.5 <= x <= 5%) |  | “++” (10 <= x <= 30%)
Cc1cc(-c2cc(F)c(F)c(Cl)c2)ccc1[C@@H](O)[C@H]1O[C@H](CO)[C@@H](O)[C@H](O)[C@@H]1O [Example 73] | “++++” (<50 “++++”) |  | “++” (0.5 <= x <= 5%) |  | “++” (10 <= x <= 30%)
Cc1cc(-c2cc(C(F)(F)F)cc(C(F)(F)F)c2)ccc1[C@@H](O)[C@H]1O[C@H](CO)[C@@H](O)[C@H](O)[C@@H]1O [Example 74] | “++++” (<50 “++++”) |  | “+” (<0.5%) |  | “++” (10 <= x <= 30%)
Cc1cc(-c2cc(F)c(OC(C)C)c(F)c2)ccc1[C@@H](O)[C@H]1O[C@H](CO)[C@@H](O)[C@H](O)[C@@H]1O [Example 93] | “++++” (<50 “++++”) |  | “+” (<0.5%) |  | “++” (10 <= x <= 30%)
CCc1c(F)cc(-c2ccc([C@@H](O)[C@H]3O[C@H](CO)[C@@H](O)[C@H](O)[C@@H]3O)c(C)c2)cc1F [Example 94] | “++++” (<50 “++++”) |  | “+” (<0.5%) |  | “++” (10 <= x <= 30%)
Cc1cc(-c2cc(F)c(OC(F)(F)F)c(F)c2)ccc1[C@@H](O)[C@H]1O[C@H](CO)[C@@H](O)[C@H](O)[C@@H]1O [Example 101] | “++++” (<50 “++++”) |  | “+” (<0.5%) |  | “++” (10 <= x <= 30%)
